This note sets out measurements from ChEMBL document CHEMBL3217454, “Structureactivity relationship studies using peptide arrays: the example of HIV-1 Revintegrase interaction” (Medchemcomm, 2013).

For experiment [1], the target named is Human immunodeficiency virus type 1 integrase (Human immunodeficiency virus 1) (UniProt Q7ZJM1). In words: Binding affinity to HIV-1 integrase measured after overnight incubation by chemiluminescence analysis relative to IN 174-188. On the set-up: concentration or dose not given beside the values.
Chain of Human immunodeficiency virus type 1 integrase (Human immunodeficiency virus 1) (Q7ZJM1 as listed by the source): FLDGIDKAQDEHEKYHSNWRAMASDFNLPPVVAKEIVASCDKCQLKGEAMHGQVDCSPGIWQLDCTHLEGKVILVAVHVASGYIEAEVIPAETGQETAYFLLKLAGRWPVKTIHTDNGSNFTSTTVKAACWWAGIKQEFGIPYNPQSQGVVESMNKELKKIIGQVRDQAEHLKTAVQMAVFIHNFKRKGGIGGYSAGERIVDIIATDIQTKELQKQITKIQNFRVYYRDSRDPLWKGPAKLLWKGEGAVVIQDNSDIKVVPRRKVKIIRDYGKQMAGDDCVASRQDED
Experiment [2] relates to Human immunodeficiency virus 1. In words: Binding affinity to HLT-tagged HIV-1 Rev measured after overnight incubation by chemiluminescence analysis relative to IN 174-188. On the set-up: concentration or dose not given beside the values.

Square brackets hold non-standard residues; d marks the D form. Peptide text beside a SMILES is read from it. NMeR = CN[C@@H](CCCNC(=N)N)C(=O)O; NMeF = CN[C@@H](Cc1ccccc1)C(=O)O; NMeA = CN[C@@H](C)C(=O)O

With `CC[C@H](C)[C@H](NC(=O)[C@H](Cc1ccccc1)NC(=O)[C@@H](NC(=O)[C@H](C)NC(=O)[C@H](CCSC)NC(=O)[C@H](CCC(N)=O)NC(=O)[C@@H](NC(=O)[C@H](C)NC(=O)[C@@H](N)[C@@H](C)O)C(C)C)C(C)C)C(=O)N[C@@H](Cc1cnc[nH]1)C(=O)N[C@H](CC(N)=O)C(=O)N[C@@H](Cc1ccccc1)C(=O)N[C@@H](CCCCN)C(=O)N[C@@H](CCCNC(=N)N)C(=O)N[C@@H](CCCCN)C(=O)O`, the results for the Activity in experiment [1] and in experiment [2] were 116% and 92%, respectively.

On to `CC[C@H](C)[C@H](NC(=O)[C@H](Cc1ccccc1)NC(=O)[C@@H](NC(=O)[C@H](C)NC(=O)[C@H](C)NC(=O)[C@H](CCC(N)=O)NC(=O)[C@@H](NC(=O)[C@H](C)NC(=O)[C@@H](N)[C@@H](C)O)C(C)C)C(C)C)C(=O)N[C@@H](Cc1cnc[nH]1)C(=O)N[C@@H](CC(N)=O)C(=O)N[C@@H](Cc1ccccc1)C(=O)N[C@@H](CCCCN)C(=O)N[C@@H](CCCNC(=N)N)C(=O)N[C@@H](CCCCN)C(=O)O` (H-TAVQAAVFIHNFKRK-OH), for which the Activity in experiment [1] is 113%; in experiment [2] it was 172%.

As to `CC[C@H](C)[C@H](NC(=O)[C@H](Cc1ccccc1)NC(=O)[C@@H](NC(=O)[C@H](C)NC(=O)[C@H](CCSC)NC(=O)[C@H](CCC(N)=O)NC(=O)[C@@H](NC(=O)[C@H](C)NC(=O)[C@@H](N)[C@@H](C)O)C(C)C)C(C)C)C(=O)N[C@@H](Cc1cnc[nH]1)C(=O)N[C@@H](CC(N)=O)C(=O)N[C@@H](Cc1ccccc1)C(=O)N[C@@H](CCCCN)C(=O)N(C)[C@@H](CCCNC(=N)N)C(=O)N[C@@H](CCCCN)C(=O)O` (H-TAVQMAVFIHNFK[NMeR]K-OH), the Activity in experiment [1] was 123%; in experiment [2], 75%.

In the case of `CC[C@H](C)[C@H](NC(=O)[C@H](Cc1ccccc1)NC(=O)[C@@H](NC(=O)[C@H](C)NC(=O)[C@H](CCSC)NC(=O)[C@H](CCC(N)=O)NC(=O)[C@@H](NC(=O)[C@H](C)NC(=O)[C@@H](N)[C@@H](C)O)C(C)C)C(C)C)C(=O)N[C@@H](C)C(=O)N[C@@H](CC(N)=O)C(=O)N[C@@H](Cc1ccccc1)C(=O)N[C@@H](CCCCN)C(=O)N[C@@H](CCCNC(=N)N)C(=O)N[C@@H](CCCCN)C(=O)O` (H-TAVQMAVFIANFKRK-OH), the Activity was found to be 122% in experiment [1] and 121% in experiment [2].

On to `CC[C@H](C)[C@H](NC(=O)[C@H](Cc1ccccc1)NC(=O)[C@@H](NC(=O)[C@H](C)NC(=O)[C@H](CCSC)NC(=O)[C@H](CCC(N)=O)NC(=O)[C@@H](NC(=O)[C@H](C)NC(=O)[C@@H](N)[C@@H](C)O)C(C)C)C(C)C)C(=O)N[C@@H](Cc1cnc[nH]1)C(=O)N[C@@H](CC(N)=O)C(=O)N(C)[C@@H](Cc1ccccc1)C(=O)N[C@@H](CCCCN)C(=O)N[C@@H](CCCNC(=N)N)C(=O)N[C@@H](CCCCN)C(=O)O` (H-TAVQMAVFIHN[NMeF]KRK-OH), for which the Activity is 122% in experiment [1] and 50% in experiment [2].

In the case of `CC[C@H](C)[C@H](NC(=O)[C@H](Cc1ccccc1)NC(=O)[C@@H](NC(=O)[C@H](C)NC(=O)[C@H](CCSC)NC(=O)[C@@H](N)CCC(N)=O)C(C)C)C(=O)N[C@@H](Cc1cnc[nH]1)C(=O)N[C@@H](CC(N)=O)C(=O)N[C@@H](Cc1ccccc1)C(=O)N[C@@H](CCCCN)C(=O)N[C@@H](CCCNC(=N)N)C(=O)N[C@@H](CCCCN)C(=O)O` (H-QMAVFIHNFKRK-OH), the figures for the Activity in experiment [1] and in experiment [2] were 122% and 135%, respectively.

As to `CC[C@H](C)[C@@H](NC(=O)[C@H](Cc1ccccc1)NC(=O)[C@@H](NC(=O)[C@H](C)NC(=O)[C@H](CCSC)NC(=O)[C@H](CCC(N)=O)NC(=O)[C@@H](NC(=O)[C@H](C)NC(=O)[C@@H](N)[C@@H](C)O)C(C)C)C(C)C)C(=O)N[C@@H](Cc1cnc[nH]1)C(=O)N[C@@H](CC(N)=O)C(=O)N[C@@H](Cc1ccccc1)C(=O)N[C@@H](CCCCN)C(=O)N[C@@H](CCCNC(=N)N)C(=O)N[C@@H](CCCCN)C(=O)O`, the Activity was 99% in experiment [1] and 108% in experiment [2].

In the case of `CC[C@H](C)[C@H](NC(=O)[C@H](Cc1ccccc1)NC(=O)[C@@H](N)C(C)C)C(=O)N[C@@H](Cc1cnc[nH]1)C(=O)N[C@@H](CC(N)=O)C(=O)N[C@@H](Cc1ccccc1)C(=O)N[C@@H](CCCCN)C(=O)N[C@@H](CCCNC(=N)N)C(=O)N[C@@H](CCCCN)C(=O)O` (H-VFIHNFKRK-OH), the Activity turned out to be 132% in experiment [1] and 86% in experiment [2].

Take `CC[C@H](C)[C@H](NC(=O)[C@H](Cc1ccccc1)NC(=O)[C@@H](NC(=O)[C@H](C)NC(=O)[C@H](CCSC)NC(=O)[C@H](CCC(N)=O)NC(=O)[C@@H](NC(=O)[C@H](C)NC(=O)[C@@H](N)[C@@H](C)O)C(C)C)C(C)C)C(=O)N[C@@H](Cc1cnc[nH]1)C(=O)N[C@@H](CC(N)=O)C(=O)N[C@H](Cc1ccccc1)C(=O)N[C@@H](CCCCN)C(=O)N[C@@H](CCCNC(=N)N)C(=O)N[C@@H](CCCCN)C(=O)O`: the figures for the Activity in experiment [1] and in experiment [2] were 112% and 156%, respectively.

Consider `CC[C@H](C)[C@H](NC(=O)[C@H](Cc1ccccc1)NC(=O)[C@@H](NC(=O)[C@H](C)NC(=O)[C@H](CCSC)NC(=O)[C@H](CCC(N)=O)NC(=O)[C@@H](NC(=O)[C@H](C)NC(=O)[C@@H](N)[C@@H](C)O)C(C)C)C(C)C)C(=O)N[C@@H](Cc1cnc[nH]1)C(=O)N[C@@H](CC(N)=O)C(=O)N[C@@H](Cc1ccccc1)C(=O)N[C@@H](CCCCN)C(=O)N[C@@H](CCCNC(=N)N)C(=O)N[C@@H](C)C(=O)O` (H-TAVQMAVFIHNFKRA-OH), for which the Activity in experiment [1] is 109%; in experiment [2], 209%.

Take `CC[C@H](C)[C@H](NC(=O)[C@H](Cc1ccccc1)NC(=O)[C@@H](NC(=O)[C@H](C)N(C)C(=O)[C@H](CCSC)NC(=O)[C@H](CCC(N)=O)NC(=O)[C@@H](NC(=O)[C@H](C)NC(=O)[C@@H](N)[C@@H](C)O)C(C)C)C(C)C)C(=O)N[C@@H](Cc1cnc[nH]1)C(=O)N[C@@H](CC(N)=O)C(=O)N[C@@H](Cc1ccccc1)C(=O)N[C@@H](CCCCN)C(=O)N[C@@H](CCCNC(=N)N)C(=O)N[C@@H](CCCCN)C(=O)O` (H-TAVQM[NMeA]VFIHNFKRK-OH): the results for the Activity in experiment [1] and in experiment [2] were 99% and 66%, respectively.

For the compound `CC[C@H](C)[C@H](NC(=O)[C@H](Cc1ccccc1)NC(=O)[C@@H](NC(=O)[C@H](C)NC(=O)[C@H](CCSC)NC(=O)[C@H](CCC(N)=O)NC(=O)[C@@H](N)C(C)C)C(C)C)C(=O)N[C@@H](Cc1cnc[nH]1)C(=O)N[C@@H](CC(N)=O)C(=O)N[C@@H](Cc1ccccc1)C(=O)N[C@@H](CCCCN)C(=O)N[C@@H](CCCNC(=N)N)C(=O)N[C@@H](CCCCN)C(=O)O` (H-VQMAVFIHNFKRK-OH), the values for the Activity in experiment [1] and in experiment [2] were 133% and 104%, respectively.

Turning to `CC[C@H](C)[C@H](NC(=O)[C@H](Cc1ccccc1)NC(=O)[C@@H](NC(=O)[C@H](C)NC(=O)[C@H](CCSC)NC(=O)[C@H](CCC(N)=O)NC(=O)[C@@H](NC(=O)[C@H](C)NC(=O)[C@@H](N)[C@@H](C)O)C(C)C)C(C)C)C(=O)N[C@@H](Cc1cnc[nH]1)C(=O)N[C@@H](CC(N)=O)C(=O)N[C@@H](Cc1ccccc1)C(=O)N[C@@H](CCCCN)C(=O)N[C@H](CCCNC(=N)N)C(=O)N[C@@H](CCCCN)C(=O)O`, the Activity in experiment [1] amounted to 93%; in experiment [2], 169%.
